Results on two sequences are retold here after US8492347B2, “Peptide for induction of immune tolerance as treatment for systemic lupus erythematosus” (The Regents of the University of California, priority 2007, dated 2013).

Where no end group is shown, it is not given here. [ ]: non-standard residue; d: D form.

In experiment [1] the test system is naïve BWF1 CD4+ CD25− helper T cells cultured with naïve BWF1 B cells. Description: anti-DNA antibody-forming cells in cultures of BWF1 B cells plus CD4+ CD25− helper T cells after i.v. peptide. In kind it is in vivo, mice. As to the method:
FIG. 1 provides a bar graph of data showing that the intravenous administration of either 500 or 250 ug of D-pCons is effective in suppressing anti-DNA antibody production by naïve BWF1 CD4+ CD25− helper T cells cultured with naïve BWF1 B cells. The numbers of splenic B cells making IgG anti-DNA dropped from 65 per 10^6 B cells in the untreated group to 30-32 in the tolerized groups.
FIG. 2 provides a bar graph of data from studies of L-pCons and D-pCons. Both D-pCons and L-pCons peptides were given once i.v. and spleen cells harvested 2 weeks later. Note that for L-pCons, the combination of naïve B cells plus CD4+ CD25− helper T cells gave a mean of 160 anti-DNA antibody-forming cells per 10^6 B cells (column 3), whereas addition of CD4+ CD25+ Treg from tolerized mice to the culture reduced the AFC to 25 per 10^6 B cells (column 4). These differences were statistically significant, p<0.001. Note also that the suppression was abrogated by incubation of the cultures with antibodies to GITR (column 6) or TGFb-LAP (column 7), but not by CTLA4-Ig (column 8).
For tolerance induction, ten-to-twelve week-old BWF1 mice received a single i.v. dose of 1 mg of one of the peptides, dissolved in saline, as reported previously (see, e.g. Singh et al., J Clin Invest 1995; 96:2990-6). Controls in selected experiments were either treated with saline or control peptides.
Assays were performed to measure anti-DNA Ab according to art accepted protocols (see, e.g. Singh et al., J Clin Invest 1995; 96:2990-6; Hahn et al., Arthritis Rheum 2001; 44:432-41; La Cava et al., J Immunol 2004; 173:3542-8; Hahn et al., Ann NY Acad Sci 2005; 1051:433-41; Hahn et al., J Immunol 2005; 175:7728-37; Singh et al., J Immunol 2007; 178:7649-57). […] After 5 days, culture supernatants were collected, concentrated, and analyzed for anti-DNA IgG by ELISA. […]

The subject of experiment [2] is BWF1 mice. Briefly: FACS of CD8+ Foxp3+ T cells in mesenteric nodes and spleen after peptide gavage. In kind it is in vivo. As to the method:
Lastly, we synthesized the D-form of pCons, for the purpose of administering it orally since D-forms are resistant to acid degradation. […] Specifically, studies have been completed in which BWF1 mice were fed 5 days a week out of every 30 days saline, low dose pCons (25 ug), middle dose (100 ug) or high dose (250 ug) by gavage. Both D and L-forms are being studied. Most of those mice were sacrificed to study characteristics of cells in mesenteric lymph nodes and spleens. Observations from these studies are disclosed in the following paragraphs.
First, we observed that CD8+ T cells that express Foxp3 (known to be inhibitory T cells for SLE) were induced in mesenteric nodes and spleen cells by the highest dose (250 ug) of D-peptide and by the middle dose (100 ug) and high dose of L-peptide. Thus the administration of low/middle dose D-peptide and of low dose L-peptide was not effective. Data were obtained by FACS analysis of total node populations, with percent of CD8+ Foxp3+ cells in untreated mice <1%, compared to 3-6% of total CD8+ cells in the effective doses of peptide. These changes are high enough to be clinically significant according to our earlier data with L-peptide given i.v.

The subject of experiment [3] is mice. Briefly: induction of Treg and Ti in mice by administered peptide. Particulars: administered subcutaneously (so in the source). It is filed as in vivo.
Experiment [4] relates to BWF1 mice. Description: single adoptive transfer of CD8+ Ti from tolerized mice to irradiated syngeneic recipients. It is filed as in vivo. The conditions noted are these: single transfer of 10×10^6 CD8+ T cells from spleens of tolerized mice. The text has this:
FIG. 4 provides graphs of data showing the CD8+ Ti induced by i.v. administration of L-pCons are potent in suppressing nephritis (left panel) and prolonging survival in vivo (right panel) (see, e.g. Hahn et al., J Immunol 2005; 175:7728-37).

In experiment [5] the test system is CD4+ CD25− T cells. Briefly: suppression of autologous CD4+ CD25− T cells by pCons-induced Treg. It is filed as cell-based, human. The conditions noted are these: 1:1 ratios. The text has this:
T cells were also expanded and silencing of Foxp3 by transfection with specific siRNA for Foxp3 abrogated the suppressive capacity of the induced T reg by ½ (3rd panel, FIG. 8).
Next, we studied the ability of L-pCons to induce Treg in T cells from the peripheral blood of patients with SLE (36 patients, 32 healthy controls). Stimulatory control peptides B and D are wild peptides from human mAb anti-DNA; peptide A is a nonstimulatory negative control (see, e.g. Kaki et al., Lupus 2004; 13:490-500). […] These expanded cells were regulatory (FIG. 8): they suppressed proliferation and IFNg synthesis by autologous CD4+ CD25− cells in culture. Numbers of CD4+ Foxp3+ T cells were also expanded and silencing of Foxp3 by transfection with specific siRNA for Foxp3 abrogated the suppressive capacity of the induced T reg by ½ (3rd panel, FIG. 8). […] Patients who were anti-DNA negative were unlikely to respond to pCons with expansion of Treg (see, e.g. La Cava et al, Lupus. 2008; 17(5):421-5).

Take “FIEWNKLRFRQGLEW ([dF][dI][dE][dW][dN][dK][dL][dR][dF][dR][dQ]G[dL][dE][dW]) [D-pCons]”: the “suppression of anti-DNA antibody production” value in experiment [1] (125 ug dose i.v.) is “not effective in inducing suppression”. For the same sequence, in experiment [1] (500 or 250 ug i.v. (tolerized groups), untreated group 65), the “numbers of splenic B cells making IgG anti-DNA” value is on record as 30-32 per 10^6 B cells. For the same sequence, the “induction of CD8+ T cells that express Foxp3” value in experiment [2] (low dose 25 ug by gavage) and in experiment [2] (middle dose 100 ug by gavage) was “not effective” throughout. Besides, in experiment [3], the “induction of Treg and Ti” value was “induces Treg and Ti”.

Turning to FIEWNKLRFRQGLEW [L-pCons], the “anti-DNA antibody-forming cells (AFC)” value in experiment [1] (peptide once i.v., spleen cells 2 weeks later, CD4+ CD25+ Treg from tolerized mice added to culture, 160 without Treg, p<0.001) was found to be 25 per 10^6 B cells. The “effect of peptide-induced CD8+ Ti on nephritis and survival” value in experiment [4] was “potent in suppressing nephritis and prolonging survival in vivo”. Moreover, the “effect of peptide-induced Treg on CD4+ CD25− T cells” value in experiment [5] is “suppress proliferation and IFNg production”.
